# Data reported in patent publication US20260285888A1, “HETEROCYCLIC COMPOUND AND USE THEREOF” (OTSUKA PHARMACEUTICAL CO., LTD., priority 2023, published 2026).
# Legend:
# in vitro = type: cell-based, human; details: human, differentiated hl-60 cells, 300 μmol/L, about 24 hours, PMA-differentiated HL-60 cells, LDH; no-treatment 0%, cell lysis buffer 100%; read-out: cytotoxicity (%) Evaluation compound results
# Procedure, shortened: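 HL-60 cells differentiated ~72 h with 10 nM PMA, then exposed ~24 h to compound at 300 μmol/L final in RPMI with 2% FBS. LDH release in supernatant gave cytotoxicity % scaled between untreated (0%) and lysis-buffer (100%) groups; triplicate.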
# [1] = Study for confirmation of conversion to brexpiprazole in a buffer (stability of the evaluation compounds); type: physicochemical; details: in buffer, average of duplicate; for Concentration of brexpiprazole formed: 60-minute reaction sample; for Concentration of evaluation compound decreased: decrease in 60-minute vs 0-minute reaction sample
# Procedure, shortened: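 Compounds (final 1 μmol/L, from 100 μmol/L working solutions) incubated in buffer at 37° C. for 0 or 60 min, in duplicate, after 3 min pre-incubation of the reaction solution. Reactions stopped with acetonitrile/isopropanol (4:1) containing internal standards; compound and formed brexpiprazole quantified against 0.01–1 μmol/L calibration samples.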
Structure (SMILES),Concentration of brexpiprazole formed [1] [nM],Concentration of evaluation compound decreased [1] [nM],"cytotoxicity at 24 h, 300 µM (in vitro) [%]"
"CC(C)COP(=O)([O-])OC[N+]1(CCCCOc2ccc3ccc(=O)[nH]c3c2)CCN(c2cccc3sccc23)CC1 [EX 90, (4-(benzo[b]thiophen-4-yl)-1-(4-(2-oxo-1,2-dihydroquinolin-7-yl)oxy)butyl)piperazin-1-ium-1-yl)methyl isobutyl phosphate]",0,-30,-6
"O=c1ccc2ccc(OCCCC[N+]3(COP(=O)([O-])OCC4CC4)CCN(c4cccc5sccc45)CC3)cc2[nH]1 [EX 91, (4-(benzo[b]thiophen-4-yl)-1-(4-((2-oxo-1,2-dihydroquinolin-7-yl)oxy)butyl)piperazin-1-ium-1-yl)methyl (cyclopropylmethyl) phosphate]",0,120,17
O=c1ccc2ccc(OCCCC[N+]3(COP(=O)([O-])OCCCCCO)CCN(c4cccc5sccc45)CC3)cc2[nH]1 [EX 92],0,110,-7
"O=c1ccc2ccc(OCCCC[N+]3(COP(=O)([O-])OCCOCCO)CCN(c4cccc5sccc45)CC3)cc2[nH]1 [EX 93, (4-(benzo[b]thiophen-4-yl)-1-(4-((2-oxo-1,2-dihydroquinolin-7-yl)oxy)butyl)piperazin-1-ium-1-yl)methyl (2-(2-hydroxyethoxy)ethyl) phosphate]",0,-10,-6
"CCOCCOP(=O)([O-])OC[N+]1(CCCCOc2ccc3ccc(=O)[nH]c3c2)CCN(c2cccc3sccc23)CC1 [EX 94, (4-(benzo[b]thiophen-4-yl)-1-(4-((2-oxo-1,2-dihydroquinolin-7-yl)oxy)butyl)piperazine-1-ium-1-yl)methyl (2-ethoxyethyl) phosphate]",0,-70,-8
"CCCOCCOP(=O)([O-])OC[N+]1(CCCCOc2ccc3ccc(=O)[nH]c3c2)CCN(c2cccc3sccc23)CC1 [EX 95, (4-(benzo[b]thiophen-4-yl)-1-(4-((2-oxo-1.2-dihydroquinolin-7-yl)oxy)butyl)piperazin-1-ium-1-yl)methyl (2-propoxyethyl) phosphate]",0,-10,-4
"CCCCOCCOP(=O)([O-])OC[N+]1(CCCCOc2ccc3ccc(=O)[nH]c3c2)CCN(c2cccc3sccc23)CC1 [EX 96, (4-(benzo[b]thiophen-4-yl)-1-(4-((2-oxo-1,2-dihydroquinolin-7-yl)oxy)butyl)piperazin-1-ium-1-yl)methyl (2-butoxyethyl) phosphate]",0,30,12
"CC(=O)OCCCCCCOP(=O)([O-])OC[N+]1(CCCCOc2ccc3ccc(=O)[nH]c3c2)CCN(c2cccc3sccc23)CC1 [EX 101, 6-acetoxyhexyl ((4-(benzo[b]thiophen-4-yl)-1-(4-((2-oxo-1,2-dihydroquinolin-7-yl)oxy)butyl)piperazin-1-ium-1-yl)methyl) phosphate]",0,80,16
"C[C@@H](OP(=O)([O-])OC[N+]1(CCCCOc2ccc3ccc(=O)[nH]c3c2)CCN(c2cccc3sccc23)CC1)C(=O)OC(C)(C)C [EX 106, (R)-(4-(benzo[b]thiophen-4-yl)-1-(4-((2-oxo-1.2-dihydroquinolin-7-yl)oxy)butyl)piperazin-1-ium-1-yl)methyl (1-(tert-butoxy)-1-oxopropan-2-yl) phosphate]",0,70,10

# Further lines, with some results ahead:
Concentration of brexpiprazole formed [1] [nM],Concentration of evaluation compound decreased [1] [nM],Structure (SMILES),"cytotoxicity at 24 h, 300 µM (in vitro) [%]"
0,90,"CCOCCCOP(=O)([O-])OC[N+]1(CCCCOc2ccc3ccc(=O)[nH]c3c2)CCN(c2cccc3sccc23)CC1 [EX 97, (4-(benzo[b]thiophen-4-yl)-1-(4-((2-oxo-1.2-dihydroquinolin-7-yl)oxy)butyl)piperazin-1-ium-1-yl)methyl (3-ethoxypropyl) phosphate]",-2
0,-20,"CCOCCOCCOP(=O)([O-])OC[N+]1(CCCCOc2ccc3ccc(=O)[nH]c3c2)CCN(c2cccc3sccc23)CC1 [EX 98, (4-(benzo[b]thiophen-4-yl)-1-(4-((2-oxo-1,2-dihydroquinolin-7-yl)oxy)butyl)piperazin-1-ium-1-yl)methyl (2-(2-ethoxyethoxy)ethyl) phosphate]",-8
0,50,"CC1(C)O[C@H]2[C@@H](O1)[C@@H](COP(=O)([O-])OC[N+]1(CCCCOc3ccc4ccc(=O)[nH]c4c3)CCN(c3cccc4sccc34)CC1)O[C@@H]1OC(C)(C)O[C@@H]12 [EX 100, (4-(benzo[b]thiophen-4-yl)-1-(4-((2-oxo-1,2-dihydroquinolin-7-yl)oxy)butyl)piperazin-1-ium-1-yl)methyl (((3aR,5R,5aS,8aS,8bR)-2,2,7,7-tetramethyltetrahydro-5H-bis([1,3]dioxolo)[4,5-b:4′,5′-d]pyran-5-yl)methyl)phosphate]",-3
0,70,"CC(C)(C)C(=O)OCCCCCCOP(=O)([O-])OC[N+]1(CCCCOc2ccc3ccc(=O)[nH]c3c2)CCN(c2cccc3sccc23)CC1 [EX 102, (4-(benzo[b]thiophen-4-yl)-1-(4-((2-oxo-1,2-dihydroquinolin-7-yl)oxy)butyl)piperazin-1-ium-1-yl)methyl (6-(pivaloyloxy)hexyl) phosphate]",16
0,-10,"CCOC(=O)[C@@H](C)OP(=O)([O-])OC[N+]1(CCCCOc2ccc3ccc(=O)[nH]c3c2)CCN(c2cccc3sccc23)CC1 [EX 103, (R)-(4-(benzo[b]thiophen-4-yl)-1-(4-((2-oxo-1,2-dihydroquinolin-7-yl)oxy)butyl)piperazin-1-ium-1-yl)methyl(1-ethoxy-1-oxopropan-2-yl) phosphate]",3
0,200,"CCOC(=O)[C@H](C)OP(=O)([O-])OC[N+]1(CCCCOc2ccc3ccc(=O)[nH]c3c2)CCN(c2cccc3sccc23)CC1 [EX 104, (S)-(4-(benzo[b]thiophen-4-yl)-1-(4-((2-oxo-1,2-dihydroquinolin-7-yl)oxy)butyl)piperazin-1-ium-1-yl)methyl (1-ethoxy-1-oxopropan-2-yl) phosphate]",-5
0,50,"CC(C)OC(=O)[C@@H](C)OP(=O)([O-])OC[N+]1(CCCCOc2ccc3ccc(=O)[nH]c3c2)CCN(c2cccc3sccc23)CC1 [EX 105, (R)-(4-(benzo[b]thiophen-4-yl)-1-(4-((2-oxo-1,2-dihydroquinolin-7-yl)oxy)butyl)piperazin-1-ium-1-yl)methyl (1-isopropoxy-1-oxopropan-2-yl) phosphate]",-6
